Where a name gives a salt, the structure may show the parent alone.
Assays:
[1] = tested on: DLD-1 BRCA2(−/−) colorectal adenocarcinoma cells; experiment: Cell viability assay (Cell Titer-Glo), DLD-1 BRCA2(−/−); type: cell-based; settings: Homo sapiens, DLD-1, 168 h; 7 days incubation, 200 cells/well
Procedure, shortened: (§1)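 Isogenic DLD-1 wild-type (50 cells/well) and BRCA2(−/−) (200 cells/well) lines treated after overnight attachment, 7 days at 37 °C, 5% CO2. Ten-point dilutions (e.g. 1.5 nM–30 μM) or single dose; CellTiter-Glo luminescence; IC50 from four-parameter fit, plus % inhibition at 10 μM.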

[2] = tested on: DLD-1 wild-type colorectal adenocarcinoma cells; experiment: Cell viability assay (Cell Titer-Glo), DLD-1 wild-type; type: cell-based; settings: Homo sapiens, DLD-1, 168 h, 7 days incubation; for inhibition at 10 µM: read-out: DLD-1 wild-type % inh at 10 μM; for IC50: 50 cells/well
Procedure, shortened: as §1

PARP1 = PARP1 (Homo sapiens, UniProt P09874); experiment: PARP1 biochemical trapping assay (BPS PARPtrap)
Description: Compounds of the present disclosure were tested in a PARP1 biochemical trapping assay at BPS Bioscience (San Diego, CA). PARP1 is known to bind damaged DNA through its DNA-binding domains. Binding to DNA activates PARP1, and in the presence of NAD+, PARP1 ribosylates itself (auto-ribosylation), leading to PARP1 dissociation from the DNA due to the accumulated negative charge of the ribosyl polymer. In the presence of some inhibitors, however, PARP remains bound to the DNA, a phenomenon termed trapping.
The BPS PARPtrap assay kit for PARP1 (BPS Catalog #80584) was used. A series of dilutions of the compounds were prepared with 10% DMSO in water. The final concentration of DMSO was 1% in all reactions. The enzymatic reactions were conducted in duplicates at room temperature in a 96-well plate. The 45 μl reaction mixtures in PARPtrap buffer 1 containing PARP1 fluorescent labelled oligonucleotide duplex, PARP enzyme and the test compound were incubated at room temperature for 10 min. After pre-incubation, the enzymatic reaction was initiated by adding 5 μl of 10×NAD+ solution. The reaction was incubated for 45-60 min at room temperature.
Fluorescence polarization was measured at an excitation of 470 nm and an emission of 518 nm using a Tecan Infinite M1000 microplate reader. The blank value was subtracted from all other values. Fluorescence polarization was analyzed by Tecan Magellan 6 software and wells containing DNA were used as references. The fluorescence polarization data were then evaluated using GraphPad Prism software. The fluorescence polarization in absence of the compound in each data set was defined as 0% activity (FPo), while the fluorescence polarization in the absence of both NAD+ and the compound was defined as 100% activity (FPt). The percent activity in the presence of the compound was calculated according to the equation % activity=[FP−FPo]/[(FPt−FPo)]×100, where FP=the fluorescence polarization in the presence of the compound.
The values of % activity versus a series of compound concentrations were then plotted using non-linear regression analysis of a sigmoidal dose-response curve generated with the equation Y=B+(T−B)/1+10^((LogEC50−X)×Hill Slope), where Y=percent activity, B=minimum percent activity, T=maximum percent activity, X=logarithm of compound and Hill Slope=slope factor or Hill coefficient. The EC50 value was determined by the concentration causing a half-maximal percent activity. EC50 values are shown in Table C and are presented in ranges, in which “+++”<300 nM, 300 nM≤“++”<3000 nM, and “+”≥3000 nM.

PARP1, sequence (P09874 whole entry, the tested form may be a part): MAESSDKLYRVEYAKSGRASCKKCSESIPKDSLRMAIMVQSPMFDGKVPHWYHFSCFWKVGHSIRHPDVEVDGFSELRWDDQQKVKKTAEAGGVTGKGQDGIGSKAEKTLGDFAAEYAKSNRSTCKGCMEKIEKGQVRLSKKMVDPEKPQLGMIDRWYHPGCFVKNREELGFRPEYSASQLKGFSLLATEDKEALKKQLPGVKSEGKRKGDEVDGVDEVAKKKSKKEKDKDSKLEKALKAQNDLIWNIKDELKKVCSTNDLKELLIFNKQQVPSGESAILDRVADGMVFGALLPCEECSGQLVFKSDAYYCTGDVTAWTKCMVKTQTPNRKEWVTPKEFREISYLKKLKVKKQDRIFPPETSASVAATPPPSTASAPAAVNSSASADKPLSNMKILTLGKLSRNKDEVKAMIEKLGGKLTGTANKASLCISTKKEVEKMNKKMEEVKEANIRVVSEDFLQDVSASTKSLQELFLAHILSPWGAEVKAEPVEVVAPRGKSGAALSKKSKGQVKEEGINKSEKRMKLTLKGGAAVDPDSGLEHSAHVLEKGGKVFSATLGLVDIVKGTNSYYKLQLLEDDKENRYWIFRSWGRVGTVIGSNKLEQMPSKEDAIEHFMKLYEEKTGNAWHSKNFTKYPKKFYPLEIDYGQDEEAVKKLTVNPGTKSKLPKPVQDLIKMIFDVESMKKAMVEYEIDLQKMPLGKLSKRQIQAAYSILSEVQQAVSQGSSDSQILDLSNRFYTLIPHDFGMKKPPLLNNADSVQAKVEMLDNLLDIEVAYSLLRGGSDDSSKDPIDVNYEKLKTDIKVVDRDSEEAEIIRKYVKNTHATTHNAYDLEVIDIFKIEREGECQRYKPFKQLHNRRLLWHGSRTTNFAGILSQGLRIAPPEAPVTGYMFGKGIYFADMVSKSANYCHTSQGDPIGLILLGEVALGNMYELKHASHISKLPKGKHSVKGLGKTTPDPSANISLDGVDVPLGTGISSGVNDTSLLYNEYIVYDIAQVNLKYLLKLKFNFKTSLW

Structure (SMILES)	IC50 [1] [µM]	inhibition at 10 µM [2] [%]	IC50 [2] [µM]	EC50 (PARP1) [µM]
CCn1c(=O)[nH]c2cc(CN3CCN(c4ccc(C(=O)NC)nc4)CC3)ccc2c1=O [Compound 3, 5-(4-((3-ethyl-2,4-dioxo-1,2,3,4-tetrahydroquinazolin-7-yl)methyl)piperazin-1-yl)-N-methylpicolinamide formate]	0.3 to 3	< 33	> 3	0.3 to 3
CCn1c(=O)[nH]c2cc(CN3CCN(c4ccc(C(=O)NC)nc4C)CC3)ccc2c1=O [Compound 16, 5-{4-[(3-ethyl-2,4-dioxo-1H-quinazolin-7-yl)methyl]piperazin-1-yl}-N,6-dimethylpyridine-2-carboxamide]	< 0.3	< 33	> 3	< 0.3
CCn1c(=O)[nH]c2cc(CN3CCN(c4ccc(C(=O)NC)nc4C)CC3)ccc2c1=S [Compound 51, 5-(4-((3-ethyl-2-oxo-4-thioxo-1,2,3,4-tetrahydroquinazolin-7-yl)methyl)piperazin-1-yl)-N,6-dimethylpicolinamide formate]	< 0.3	> 67	> 3	0.3 to 3
CCn1c(=O)[nH]c2cc(CN3CCN(c4ccc(C(=O)NC)nc4C)CC3)sc2c1=O [Compound 188, 5-(4-((3-ethyl-2,4-dioxo-1,2,3,4-tetrahydrothieno[3,2-d]pyrimidin-6-yl)methyl)piperazin-1-yl)-N,6-dimethylpicolinamide]	< 0.3	< 33	> 3	0.3 to 3
CCN1Cc2ccc(CN3CCN(c4ccc(C(=O)NC)nc4)CC3)cc2NC1=O [Compound 196, 5-(4-((3-ethyl-2-oxo-1,2,3,4-tetrahydroquinazolin-7-yl)methyl)piperazin-1-yl)-N-methylpicolinamide formate]	0.3 to 3	< 33	> 3	0.3 to 3
